Assays:
mouse DGAT1 = target: T1, mouse DGAT1 (Mus musculus, UniProt Q9Z2A7); experiment: DGAT1 inhibitory effect test (microsome fraction, [14C]-oleoyl-CoA, triglyceride radioactivity by TLC); type: biochemical; details: 0.5 h; concentration of the test compound 0.1 μg/ml; mouse DGAT1 microsomes, 23° C., 30 minutes; read-out: Inhibitory ratio
T1 construct: made in house; host or cells: insect cells (High Five, Sf9, Sf21, etc.), baculovirus expression system (Invitrogen)
T1 sequence (Q9Z2A7 1-498): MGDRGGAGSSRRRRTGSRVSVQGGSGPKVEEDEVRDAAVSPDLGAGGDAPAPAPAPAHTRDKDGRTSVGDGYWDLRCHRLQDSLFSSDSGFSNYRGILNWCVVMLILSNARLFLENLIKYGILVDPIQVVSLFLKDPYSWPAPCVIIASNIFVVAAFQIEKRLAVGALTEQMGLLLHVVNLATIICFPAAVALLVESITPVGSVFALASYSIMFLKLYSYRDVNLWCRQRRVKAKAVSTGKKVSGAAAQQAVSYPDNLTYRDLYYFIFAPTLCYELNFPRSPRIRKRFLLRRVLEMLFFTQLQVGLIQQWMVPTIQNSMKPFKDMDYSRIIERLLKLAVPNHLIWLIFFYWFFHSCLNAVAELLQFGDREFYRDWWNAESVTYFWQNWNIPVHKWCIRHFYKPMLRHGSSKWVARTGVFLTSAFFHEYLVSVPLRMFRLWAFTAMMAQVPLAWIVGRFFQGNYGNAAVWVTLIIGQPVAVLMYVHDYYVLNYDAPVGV
Procedure, shortened: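 Baculovirus-expressed mouse DGAT1 insect-cell microsomes (10 μg) were incubated 30 min at 23 °C, pH 8.0, with 0.5 mM 1,2-dioleoyl-sn-glycerol, 30 μM [14C]-oleoyl-CoA and 0.5% Triton X-100. [14C]-triglyceride was quantified after heptane extraction and TLC. Percent inhibition was taken against vehicle control, with 0-min background subtracted.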

| Compound | melting point | inhibition at 0.1 µg/mL (mouse DGAT1) |
| --- | --- | --- |
| COc1ccc(C)cc1NC(=O)Nc1ccc(N2CCN(C(=O)Nc3ncccc3C)CC2)c(F)c1 [Example 312, 4-{2-fluoro-4-[3-(2-methoxy-5-methyl-phenyl)-ureido]-phenyl}-piperazine-1-carboxylic acid (3-methyl-pyridin-2-yl)-amide] | 188 to 190 °C | ≥ 50% |
| COc1ccc(C)cc1NC(=O)Nc1ccc(N2CCN(C(=O)Nc3ncccc3C)CC2)c(C)c1 [Example 313, 4-{4-[3-(2-methoxy-5-methyl-phenyl)-ureido]-2-methyl-phenyl}-piperazine-1-carboxylic acid (3-methyl-pyridin-2-yl)-amide] | 144 to 146 °C | ≥ 50% |
| COc1ccc(C)cc1NC(=O)Nc1ccc(C2=CCN(C(=O)Nc3ncccc3C)CC2)cc1 [Example 324, 4-{4-[3-(2-methoxy-5-methyl-phenyl)-ureido]-phenyl}-3,6-dihydro-2H-pyridine-1-carboxylic acid (3-methyl-pyridin-2-yl)-amide] | 195 to 198 °C | ≥ 50% |
| COc1cc(NC(=O)Nc2ccc(N3CCN(C(=O)Nc4ncc(F)cc4F)CC3)cc2)cc(OC)c1 [Example 341, 4-{4-[3-(3,5-dimethoxy-phenyl)-ureido]-phenyl}-piperazine-1-carboxylic acid (3,5-difluoro-pyridin-2-yl)-amide] | 204 to 205 °C | ≥ 50% |
| O=C(Nc1ccc(N2CCN(C(=O)C(O)c3ccccc3Cl)CC2)nc1)Nc1ccccc1F (stereo not drawn) [Example 377, 1-(6-{4-[2-(2-chloro-phenyl)-2-hydroxy-acetyl]-piperazin-1-yl}-pyridin-3-yl)-3-(2-fluoro-phenyl)-urea] | 127 to 128 °C | ≥ 50% |
| COc1ccc(C)cc1NC(=O)Nc1ccc(N2CCN(C(=O)C(O)c3ccccc3Cl)CC2)cc1 (stereo not drawn) [Example 378, 1-(4-{4-[2-(2-chloro-phenyl)-2-hydroxy-acetyl]-piperazin-1-yl}-phenyl)-3-(2-methoxy-5-methyl-phenyl)-urea] | 118 to 120 °C | ≥ 50% |
| O=C(Nc1ccc(N2CCN(C(=O)C(O)c3ccc(O)cc3Cl)CC2)nc1)Nc1ccccc1F (stereo not drawn) [Example 379, 1-(6-{4-[2-(2-chloro-4-hydroxy-phenyl)-2-hydroxy-acetyl]-piperazin-1-yl}-pyridin-3-yl)-3-(2-fluoro-phenyl)-urea] | 133 to 135 °C | ≥ 50% |
| COc1ccc(C)cc1NC(=O)Nc1ccc(N2CCN(C(=O)C(O)c3ccccc3Cl)CC2)nc1 (stereo not drawn) [Example 380, 1-(6-{4-[2-(2-chloro-phenyl)-2-hydroxy-acetyl]-piperazin-1-yl}-pyridin-3-yl)-3-(2-methoxy-5-methyl-phenyl)-urea] | 118 to 120 °C | ≥ 50% |
| O=C(Nc1ccc(N2CCN(C(=O)Nc3ccc(C(=O)O)cc3Cl)CC2)cc1)Nc1ccccc1F [Example 388, 3-chloro-4-[(4-{4-[3-(2-fluoro-phenyl)-ureido]-phenyl}-piperazine-1-carbonyl)-amino]-benzoic acid] | 250 to 253 °C | ≥ 50% |
| CCOP(=O)(O)Cc1ccc(NC(=O)N2CCN(c3ccc(NC(=O)Nc4cc(C)ccc4OC)cc3)CC2)c(C)c1 [Example 391, {4-[(4-{4-[3-(2-methoxy-5-methyl-phenyl)-ureido]-phenyl}-piperazine-1-carbonyl)-amino]-3-methyl-benzyl}-phosphonic acid monoethyl ester] | 165 to 173 °C | ≥ 50% |
| COC(=O)Cc1ccc(OC(=O)N2CCN(c3ccc(NC(=O)Nc4cc(C)ccc4OC)cc3)CC2)c(Cl)c1 [Example 393, 4-{4-[3-(2-methoxy-5-methyl-phenyl)-ureido]-phenyl}-piperazine-1-carboxylic acid 2-chloro-4-methoxycarbonylmethyl-phenyl ester] | 209 to 210 °C | ≥ 50% |
| COc1ccc(C)cc1NC(=O)Nc1ccc(N2CCN(C(=O)Oc3ccc(CC(=O)O)cc3Cl)CC2)cc1 [Example 394, 4-{4-[3-(2-methoxy-5-methyl-phenyl)-ureido]-phenyl}-piperazine-1-carboxylic acid 4-carboxymethyl-2-chloro-phenyl ester] | 199 to 200 °C | ≥ 50% |
| COc1ccc(C)cc1NC(=O)Nc1ccc(N2CCN(C(=O)Oc3ccc(CCO)cc3Cl)CC2)cc1 [Example 395, 4-{4-[3-(2-methoxy-5-methyl-phenyl)-ureido]-phenyl}-piperazine-1-carboxylic acid 2-chloro-4-(2-hydroxy-ethyl)-phenyl ester] | 189 to 190 °C | ≥ 50% |
| COc1ccc(C)cc1NC(=O)Nc1ccc2c(c1)CCN(C(=O)Oc1ccc(CCO)cc1Cl)C2 [Example 396, 6-[3-(2-methoxy-5-methyl-phenyl)-ureido]-3,4-dihydro-1H-isoquinoline-2-carboxylic acid 2-chloro-4-(2-hydroxy-ethyl)-phenyl ester] | 95 to 98 °C | ≥ 50% |
| COc1ccc(C)cc1NC(=O)Nc1ccc2c(c1)CCN(C(=O)Oc1ccc(C(=O)O)cc1Cl)C2 [Example 397, 6-[3-(2-methoxy-5-methyl-phenyl)-ureido]-3,4-dihydro-1H-isoquinoline-2-carboxylic acid 4-carboxy-2-chloro-phenyl ester] | 196 to 198 °C | ≥ 50% |
